pIC50: −log10 of the molar value.
These compounds were tested against NLRP3 (Homo sapiens, UniProt Q96P20) (assay: THP-1 cells pyroptosis assay (LPS + nigericin, resazurin readout)). Details: NLRP3 inhibitory activity, 1.0 μg/ml LPS, 3 hrs compound, nigericin 5 μM 1 hr.
Format: cell-based
Design: Seed THP-1 cells (25,000 cells/well) containing 1.0 μg/ml LPS; host or cells: THP-1 cells
Method: THP-1 cells (ATCC #TIB-202) were grown in RPMI containing L-glutamine (Gibco #11835) supplemented with 1 mM sodium pyruvate (Sigma #S8636) and penicillin (100 units/ml)/streptomycin (0.1 mg/ml) (Sigma #P4333) in 10% Fetal Bovine Serum (FBS) (Sigma #F0804). The cells were routinely passaged and grown to confluency (˜10^6 cells/ml). On the day of the experiment, THP-1 cells were harvested and resuspended into RPMI medium (without FBS). The cells were then counted and viability (>90%) checked by Trypan blue (Sigma #T8154). Appropriate dilutions were made to give a concentration of 625,000 cells/ml. To this diluted cell solution was added LPS (Sigma #L4524) to give a […] Final Assay Concentration (FAC). 40 μl of the final preparation was aliquoted into each well of a 96-well plate. The plate thus prepared was used for compound screening.
The following method step-by-step assay was followed for compound screening. • 1. Seed THP-1 cells (25,000 cells/well) containing 1.0 μg/ml LPS in 40 μl of RPMI medium (without FBS) in 96-well, black walled, clear bottom cell culture plates coated with poly-D-lysine (VWR #734-0317) • 2. Add 5 μl compound (8 points half-log dilution, with 10 μM top dose) or vehicle (DMSO 0.1% FAC) to the appropriate wells • 3. Incubate for 3 hrs at 37° C., 5% CO2 • 4. Add 5 μl nigericin (Sigma #N7143) (FAC 5 μM) to all wells • 5. Incubate for 1 hr at 37° C., 5% CO2 • 6. At the end of the incubation period, spin plates at 300×g for 3 mins and remove supernatant • 7. Then add 50 μl of resazurin (Sigma #R7017) (FAC 100 μM resazurin in RPMI medium without FBS) and incubate plates for a further 1-2 hrs at 37° C. and 5% CO2 • 8. Plates were read in an Envision reader at Ex 560 nm and Em 590 nm • 9. IC50 data is fitted to a non-linear regression equation (log inhibitor vs response-variable slope 4-parameters)

Chain of NLRP3 (Q96P20 whole entry): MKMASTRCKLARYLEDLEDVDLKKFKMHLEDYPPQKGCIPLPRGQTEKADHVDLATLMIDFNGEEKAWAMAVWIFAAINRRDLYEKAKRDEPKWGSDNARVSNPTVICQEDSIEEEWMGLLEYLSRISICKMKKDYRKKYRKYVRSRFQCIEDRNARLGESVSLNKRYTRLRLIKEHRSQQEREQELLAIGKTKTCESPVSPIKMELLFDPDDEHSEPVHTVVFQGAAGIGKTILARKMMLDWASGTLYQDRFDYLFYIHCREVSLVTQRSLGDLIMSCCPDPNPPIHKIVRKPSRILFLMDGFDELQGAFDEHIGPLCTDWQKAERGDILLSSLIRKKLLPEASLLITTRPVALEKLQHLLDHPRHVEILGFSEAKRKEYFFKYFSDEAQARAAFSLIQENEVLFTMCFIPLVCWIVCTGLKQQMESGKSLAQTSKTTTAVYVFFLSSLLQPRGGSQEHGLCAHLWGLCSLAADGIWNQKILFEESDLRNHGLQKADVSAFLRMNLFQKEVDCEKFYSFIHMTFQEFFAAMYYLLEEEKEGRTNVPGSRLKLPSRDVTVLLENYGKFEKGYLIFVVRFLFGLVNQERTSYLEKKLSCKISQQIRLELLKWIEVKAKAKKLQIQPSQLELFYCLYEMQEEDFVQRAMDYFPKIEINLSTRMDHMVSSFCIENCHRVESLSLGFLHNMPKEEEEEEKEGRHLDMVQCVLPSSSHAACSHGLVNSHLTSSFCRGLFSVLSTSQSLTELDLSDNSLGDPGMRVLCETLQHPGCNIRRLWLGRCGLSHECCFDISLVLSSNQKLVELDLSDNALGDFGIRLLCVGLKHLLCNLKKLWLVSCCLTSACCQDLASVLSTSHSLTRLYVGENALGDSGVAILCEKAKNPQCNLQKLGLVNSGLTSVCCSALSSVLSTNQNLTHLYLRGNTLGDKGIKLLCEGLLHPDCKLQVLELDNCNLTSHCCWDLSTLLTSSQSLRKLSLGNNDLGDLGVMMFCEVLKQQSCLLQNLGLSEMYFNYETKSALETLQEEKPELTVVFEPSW

| Compound | pIC50 |
| --- | --- |
| CC(C)c1cc(F)cc2c1CC(=O)NS(=O)(=O)c1nn(c(CN3CCOCC3)c1F)C(C)(C)COc1cc-2ccn1 [Example 55, 4,13-difluoro-6-isopropyl-16,16-dimethyl-14-(morpholinomethyl)-11,11-dioxo-18-oxa-11λ^6-thia-10,15,20,24-tetrazatetracyclo[17.3.1.1^12,15.0^2,7]tetracosa-1(23),2(7),3,5,12(24),13,19,21-octaen-9-one] | 6.30 to 7.00 |
| CC(C)c1cc(F)cc2c1CC(=O)NS(=O)(=O)c1cc(cc(C3CC3)c1)CCOc1cc-2ccn1 [Example 30, 14-cyclopropyl-4-fluoro-6-(propan-2-yl)-19-oxa-11λ^6-thia-10,21-diazatetracyclo[18.3.1.11^2,16.0^2,7]pentacosa-1(23),2(7),3,5,12(25),13,15,20(24),21-nonaene-9,11,11-trione] | 6.00 to 6.30 |
| Cc1nn2c(C)c1S(=O)(=O)NC(=O)Cc1c(cc(F)cc1C(C)C)-c1ccnc(c1)OCC2(C)C [Example 23] | 5.00 to 5.30 |
| CC(C)c1cccc2c1CC(=O)NS(=O)(=O)c1cccc(c1)CCOc1cc-2ccn1 [Example 7] | 5.30 to 6.00 |
| CC(C)c1cc(F)cc2c1CC(=O)NS(=O)(=O)c1nn(cc1F)CCOc1cc-2ccn1 [Example 14] | 5.30 to 6.00 |
| COCc1cc2c(c(C(C)C)c1F)CC(=O)NS(=O)(=O)c1cnn(c1)C(C)(C)COc1cc-2ccn1 [Example 52, 5-fluoro-6-isopropyl-4-(methoxymethyl)-16,16-dimethyl-11,11-dioxo-18-oxa-11λ^6-thia-10,14,15,20-tetrazatetracyclo[17.3.1.1^12,15.0^2,7]tetracosa-1(23),2(7),3,5, 12(24),13,19,21-octaen-9-one] | 6.30 to 7.00 |
| CC(C)c1cccc2c1CC(=O)NS(=O)(=O)N1CCCC(C1)N(C)CCOc1cc-2ccn1 (centres unmarked) [Example 45, 17-methyl-6-(propan-2-yl)-20-oxa-11λ^6-thia-10,12,17,22-tetraaza-tetracyclo[19.3.1.1^12,16.0^2,7]hexacosa-1(24),2(7),3,5,21(25),22-hexaene-9,11,11-trione] | 5.30 to 6.00 |
| CC(C)c1cc(C#N)cc2c1CC(=O)NS(=O)(=O)c1cnn(c1)C(C)(C)COc1cc-2ccn1 [Example 46, 6-isopropyl-16,16-dimethyl-9,11,11-trioxo-18-oxa-11λ^6-thia-10,14,15,20-tetrazatetra-cyclo[17.3.1.1^12,15.0^2,7]tetracosa-1(23),2(7),3,5,12(24),13,19,21-octaene-4-carbonitrile] | 5.30 to 6.00 |
| CC(C)c1cccc2c1CC(=O)NS(=O)(=O)c1ccnn1CCCCCOc1cc-2ccn1 [Example 43, 6-(propan-2-yl)-22-oxa-11λ^6-thia-10,15,16,24-tetraazatetracyclo-[21.3.1.0^2,7.0^12,16]heptacosa-1(26),2(7),3,5,12,14,23(27),24-octaene-9,11,11-trione] | 5.30 to 6.00 |
| CC(C)c1cc(F)cc2c1CC(=O)NS(=O)(=O)c1nn(c(C(=O)N3CCN(C)CC3)c1F)C(C)(C)COc1cc-2ccn1 [Example 54, 4,13-difluoro-6-isopropyl-16,16-dimethyl-14-(4-methylpiperazine-1-carbonyl)-11,11-dioxo-18-oxa-11λ^6-thia-10,15,20,24-tetrazatetracyclo[17.3.1.1^12,15.0^2,7]-tetracosa-1(23),2(7),3,5,12(24),13,19,21-octaen-9-one] | 6.00 to 6.30 |
| CC(C)c1c(F)c(OC(F)F)cc2c1CC(=O)NS(=O)(=O)c1cnn(c1)C(C)(C)COc1cc-2ccn1 [Example 49, 4-(difluoromethoxy)-5-fluoro-6-isopropyl-16,16-dimethyl-11,11-dioxo-18-oxa-11λ^6-thia-10,14,15,20-tetrazatetracyclo[17.3.1.1^12,15.0^2,7]tetracosa-1(23),2(7),3,5, 12(24),13,19,21-octaen-9-one] | 6.00 to 6.30 |
| CC(C)c1cc(F)cc2c1CC(=O)NS(=O)(=O)c1cnn(c1)C(C)(C)CNc1cc-2ccn1 [Example 56, 4-fluoro-6-isopropyl-16,16-dimethyl-11,11-dioxo-11λ^6-thia-10,14,15,18, 20-pentazatetracyclo[17.3.1.1^12,15.0^2,7]tetracosa-1(23),2(7),3,5,12(24),13,19,21-octaen-9-one] | ≥ 7.00 |
| CC(C)c1cc(F)cc2c1CC(=O)NS(=O)(=O)c1nn(c(CN3CCN(C)CC3)c1F)C(C)(C)COc1cc-2ccn1 [Example 53, 4,13-difluoro-6-isopropyl-16,16-dimethyl-14-[(4-methylpiperazin-1-yl)-methyl]-11,11-dioxo-18-oxa-11λ^6-thia-10,15,20,24-tetrazatetracyclo[17.3.1.1^12,15.0^2,7]-tetracosa-1(23),2(7),3,5,12(24),13,19,21-octaen-9-one] | ≥ 7.00 |
| CC(C)c1cccc2c1CC(=O)NS(=O)(=O)c1cccc(c1)C(C)(C)COc1cc-2ccn1 [Example 28] | 5.30 to 6.00 |
| CC(C)c1cc(F)cc2c1CC(=O)NS(=O)(=O)c1cccnc1OCCCOc1cc-2ccn1 [Example 18] | 5.30 to 6.00 |
| CC(C)c1cc(OC(F)F)cc2c1CC(=O)NS(=O)(=O)c1cnn(c1)C(C)(C)COc1cc-2ccn1 [Example 47, 4-(difluoromethoxy)-6-isopropyl-16,16-dimethyl-11,11-dioxo-18-oxa-11λ^6-thia-10,14,15,20-tetrazatetracyclo[17-3-1-1^12,15.0^2,7]tetracosa-1(23),2(7),3,5,12(24), 13,19,21-octaen-9-one] | 6.30 to 7.00 |
| CC1(C)COc2cc(ccn2)-c2ccc3c(c2CC(=O)NS(=O)(=O)c2nn1cc2F)CCC3 [Example 6, 16-fluoro-19,19-dimethyl-21-oxa-14λ^6-thia-13,18,23,27-tetraazapentacyclo[20.3.1.1^15,18.0^2,10.0^5,9]heptacosa-1(25),2,4,9,15(27),16,22(26),23-octaene-12,14,14-trione] | 5.00 to 5.30 |
| CC(C)c1cc(F)cc2c1CC(=O)NS(=O)(=O)c1cc(ccc1F)CCOc1cc-2ccn1 [Example 26] | 5.30 to 6.00 |
| CC(C)c1c(F)c(C#N)cc2c1CC(=O)NS(=O)(=O)c1cnn(c1)C(C)(C)COc1cc-2ccn1 [Example 48, 5-fluoro-6-isopropyl-16,16-dimethyl-9,11,11-trioxo-18-oxa-11λ^6-thia-10,14,15,20-tetrazatetracyclo[17-3-1-1^12,15.0^2,7]tetracosa-1(23),2(7),3,5,12(24),13,19,21-octaene-4-carbonitrile] | 5.30 to 6.00 |
| COCc1cc2c(c(C(C)C)c1)CC(=O)NS(=O)(=O)c1cnn(c1)C(C)(C)COc1cc-2ccn1 [Example 51, 6-isopropyl-4-(methoxymethyl)-16,16-dimethyl-11,11-dioxo-18-oxa-11λ^6-thia-10,14,15,20-tetrazatetracyclo[17-3-1-1^12,15.0^2,7]tetracosa-1(23),2(7),3,5,12(24),13,19, 21-octaen-9-one] | ≥ 7.00 |
| O=C1Cc2c(ccc3c2CCC3)-c2ccnc(c2)OCCc2cccc(c2)S(=O)(=O)N1 [Example 9] | 5.00 to 5.30 |
| CC(C)c1cccc2c1CC(=O)NS(=O)(=O)c1nn(cc1F)CCOc1cc-2ccn1 [Example 8] | 5.30 to 6.00 |
| CC(C)c1cc(F)cc2c1CC(=O)NS(=O)(=O)c1nn(cc1C(=O)N(C)C)C(C)(C)COc1cc-2ccn1 [Example 50, 4-fluoro-6-isopropyl-N,N,16,16-tetramethyl-9,11,11-trioxo-18-oxa-11λ^6-thia-10,15,20,24-tetrazatetracyclo[17.3.1.1^12,15.0^2,7]tetracosa-1(23),2(7),3,5,12(24),13,19, 21-octaene-13-carboxamide] | 5.00 to 5.30 |
